This test relates to laying hens. Description: Assessment of shell quality in laying hen farms. Particulars: egg production. Format: in vivo. On the procedure: In order to assess the effect of the use of the nutritional supplement on the calcium and phosphorus absorption in laying hens, several studies on laying hens from different farms were carried out. The studies comprised the analysis of animals before and after the feed with the formulation containing the nutritional supplement comprising ingredients shown in Table 3.
More specifically, an assessment of the shell quality in laying hens was conducted by collecting the eggs before and after feeding the animals with the formulation containing the nutritional supplement. Hens from farms in the states of Espírito Santo (350,000 hens), São Paulo (2,000,000 hens), Paraná (1,100,000 hens), and Minas Gerais ([…]) were fed with a pair of feed formulas, one without and another one with the nutritional supplement of the present invention.
Laid eggs were collected after feeding the hens with regular feed and later with the feed containing the emulsifier of the present invention. Data obtained from the analysis of the eggs from the farms in Espírito Santo, São Paulo, Paraná, and Minas Gerais are included in Tables 6 to 9 below, the beneficial effects on the shells being emphasized thereof, among them the reduction in cracks in chicken eggs.

We go through one compound from patent US20260107957A1, “USE OF AN EMULSIFIER DERIVED FROM RICINOLEIC ACID TO INCREASE THE ABSORPTION OF CALCIUM AND PHOSPHORUS IN THE DIGESTIVE TRACT OF FARM ANIMALS” (priority 2023, published 2026).

For `CCCCCC[C@@H](O)C/C=C\CCCCCCCC(=O)[O-].[Na+]` [emulsifier derived from ricinoleic acid, Sodium Ricinolate], the “increase of the amount of saleable eggs” value was “up to 5%”. Also, for the setting “usual loss up to 7%”, the “eggs produced daily lost by shell problems” value is listed as “below 2%”.
